{"source": "patent US9833497B2", "about": "“Human originated EGF domain proteins and use of the same” (CHENGDU SOURCEBIO LIMITED-LIABILITY COMPANY, priority 2013, dated 2017)", "assay_type_in_all_cases": "cell-based", "key": {"Proteus mirabilis": {"test_system": "Proteus mirabilis", "assay": "MIC against Gram-negative bacteria: Proteus mirabilis", "method_in_brief": "(§1)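 The recombinant human-originated EGF domain proteins were serially diluted two-fold against bacteria at 5×10^5 CFU/mL in LB medium. After shaken incubation at 37° C, the lowest concentration with no bacterial growth was recorded as the MIC.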"}, "Proteus vulgaris": {"test_system": "Proteus vulgaris", "assay": "MIC against Gram-negative bacteria: Proteus vulgaris", "method_in_brief": "as §1"}, "E. coli DH5α": {"test_system": "E. coli DH5α", "assay": "Antibacterial activity: MIC and growth curve against E. coli DH5α in 96-well plate", "details": "minimal inhibitory concentration against E. coli DH5α; 96-well plate, 5×10^5 CFU/mL, 37° C., judged after 8 h", "method_in_brief": "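Log-phase DH5α (OD600 about 0.5, 37° C, 185 rpm in LB) was pelleted, resuspended in fresh LB and seeded at 5×10^5 CFU/mL with recombinant protein at 50, 25 and 12.5 μg/mL (two-fold series), in triplicate. Plates were shaken at 175 rpm, 37° C, and OD600 was read every 30 min. MIC was the lowest concentration with no growth.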"}, "Aeromonas hydrophila": {"test_system": "Aeromonas hydrophila", "assay": "MIC against Gram-negative bacteria: Aeromonas hydrophila", "method_in_brief": "as §1"}, "Moraxella catarrhalis": {"test_system": "Moraxella catarrhalis", "assay": "MIC against Gram-negative bacteria: Moraxella catarrhalis", "method_in_brief": "as §1"}, "Enterobacter cloacae": {"test_system": "Enterobacter cloacae", "assay": "MIC against Gram-negative bacteria: Enterobacter cloacae", "method_in_brief": "as §1"}, "Citrobacter diversus": {"test_system": "Citrobacter diversus", "assay": "MIC against Gram-negative bacteria: Citrobacter diversus", "method_in_brief": "as §1"}, "Klebsiella pneumonia": {"test_system": "Klebsiella pneumonia", "assay": "MIC against Gram-negative bacteria: Klebsiella pneumonia", "method_in_brief": "as §1"}, "Pseudomonas aeruginosa": {"test_system": "Pseudomonas aeruginosa", "assay": "MIC against Gram-negative bacteria: Pseudomonas aeruginosa", "method_in_brief": "as §1"}, "Serratia marcescens": {"test_system": "Serratia marcescens", "assay": "MIC against Gram-negative bacteria: Serratia marcescens", "method_in_brief": "as §1"}, "E. coli BL21": {"test_system": "E. coli BL21", "assay": "MIC against Gram-negative bacteria: E. coli BL21", "method_in_brief": "as §1"}, "[1]": {"details": "96-well plate, 5×10^5 CFU/mL, 37° C., 10 h"}, "[2]": {"details": "Proteus mirabilis, 96-well plate, 5×10^5 CFU/mL, 37° C., 10 h"}, "[3]": {"details": "Proteus vulgaris, 96-well plate, 5×10^5 CFU/mL, 37° C., 10 h"}, "[4]": {"details": "Aeromonas hydrophila, 96-well plate, 5×10^5 CFU/mL, 37° C., 10 h"}, "[5]": {"details": "Moraxella catarrhalis, 96-well plate, 5×10^5 CFU/mL, 37° C., 10 h"}, "[6]": {"details": "Enterobacter cloacae, 96-well plate, 5×10^5 CFU/mL, 37° C., 10 h"}, "[7]": {"details": "Citrobacter diversus, 96-well plate, 5×10^5 CFU/mL, 37° C., 10 h"}, "[8]": {"details": "Klebsiella pneumonia, 96-well plate, 5×10^5 CFU/mL, 37° C., 10 h"}, "[9]": {"details": "Pseudomonas aeruginosa, 96-well plate, 5×10^5 CFU/mL, 37° C., 10 h"}, "[10]": {"details": "Serratia marcescens, 96-well plate, 5×10^5 CFU/mL, 37° C., 10 h"}, "[11]": {"details": "E. coli BL21, 96-well plate, 5×10^5 CFU/mL, 37° C., 10 h"}}, "data": [{"substance": "PRT496 (CSCNNHSDTCDPNTGKCLNCGDNTAGDHCDVCTSGYYGKVTGSASDCAL; listed as Homo sapiens)", "values": [{"measurement": "MIC against P. mirabilis", "setting": "Proteus mirabilis; [1]", "value": 25, "unit": "µg/mL"}, {"measurement": "MIC against P. vulgaris", "setting": "Proteus vulgaris; [1]", "value": 50, "unit": "µg/mL"}, {"measurement": "MIC", "setting": "E. coli DH5α", "value": 12.5, "unit": "µg/mL"}, {"measurement": "MIC against A. hydrophila", "setting": "Aeromonas hydrophila; [1]", "value": 12.5, "unit": "µg/mL"}, {"measurement": "MIC against M. catarrhalis", "setting": "Moraxella catarrhalis; [1]", "value": 12.5, "unit": "µg/mL"}, {"measurement": "MIC against E. cloacae", "setting": "Enterobacter cloacae; [1]", "value": 50, "unit": "µg/mL"}, {"measurement": "MIC against C. diversus", "setting": "Citrobacter diversus; [1]", "value": 50, "unit": "µg/mL"}, {"measurement": "MIC against K. pneumonia", "setting": "Klebsiella pneumonia; [1]", "value": 12.5, "unit": "µg/mL"}, {"measurement": "MIC against P. aeruginosa", "setting": "Pseudomonas aeruginosa; [1]", "value": 50, "unit": "µg/mL"}, {"measurement": "MIC against S. marcescens", "setting": "Serratia marcescens; [1]", "value": 25, "unit": "µg/mL"}, {"measurement": "MIC against E. coli BL21", "setting": "E. coli BL21; [1]", "value": 12.5, "unit": "µg/mL"}]}, {"substance": "PRT660 (DHDECQDLACENGECVNTEGSFHCFCSPPLTLDLSQQRCM; listed as Homo sapiens)", "values": [{"measurement": "MIC P. mirabilis", "setting": "Proteus mirabilis; [1]", "value": 25, "unit": "µg/mL"}, {"measurement": "MIC P. vulgaris", "setting": "Proteus vulgaris; [1]", "value": 50, "unit": "µg/mL"}, {"measurement": "MIC", "setting": "E. coli DH5α", "value": 12.5, "unit": "µg/mL"}, {"measurement": "MIC A. hydrophila", "setting": "Aeromonas hydrophila; [1]", "value": 12.5, "unit": "µg/mL"}, {"measurement": "MIC M. catarrhalis", "setting": "Moraxella catarrhalis; [1]", "value": 12.5, "unit": "µg/mL"}, {"measurement": "MIC E. cloacae", "setting": "Enterobacter cloacae; [1]", "value": 50, "unit": "µg/mL"}, {"measurement": "MIC C. diversus", "setting": "Citrobacter diversus; [1]", "value": 50, "unit": "µg/mL"}, {"measurement": "MIC K. pneumonia", "setting": "Klebsiella pneumonia; [1]", "value": 12.5, "unit": "µg/mL"}, {"measurement": "MIC P. aeruginosa", "setting": "Pseudomonas aeruginosa; [1]", "value": 12.5, "unit": "µg/mL"}, {"measurement": "MIC S. marcescens", "setting": "Serratia marcescens; [1]", "value": 12.5, "unit": "µg/mL"}, {"measurement": "MIC E. coli BL21", "setting": "E. coli BL21; [1]", "value": 50, "unit": "µg/mL"}]}, {"substance": "PRT941 (EINECSSHPCLNEGTCVDGLGTYRCSCPLGYTGKNCQ; listed as Homo sapiens)", "values": [{"measurement": "MIC", "setting": "Proteus mirabilis; P. mirabilis, 10 h cultivation at 37° C.", "value": 12.5, "unit": "µg/mL"}, {"measurement": "MIC", "setting": "Proteus vulgaris; P. vulgaris, 10 h cultivation at 37° C.", "value": 50, "unit": "µg/mL"}, {"measurement": "MIC", "setting": "E. coli DH5α", "value": 25, "unit": "µg/mL"}, {"measurement": "MIC", "setting": "Aeromonas hydrophila; A. hydrophila, 10 h cultivation at 37° C.", "value": 50, "unit": "µg/mL"}, {"measurement": "MIC", "setting": "Moraxella catarrhalis; M. catarrhalis, 10 h cultivation at 37° C.", "value": 50, "unit": "µg/mL"}, {"measurement": "MIC", "setting": "Enterobacter cloacae; E. cloacae, 10 h cultivation at 37° C.", "value": 12.5, "unit": "µg/mL"}, {"measurement": "MIC", "setting": "Citrobacter diversus; C. diversus, 10 h cultivation at 37° C.", "value": 12.5, "unit": "µg/mL"}, {"measurement": "MIC", "setting": "Klebsiella pneumonia; K. pneumonia, 10 h cultivation at 37° C.", "value": 50, "unit": "µg/mL"}, {"measurement": "MIC", "setting": "Pseudomonas aeruginosa; P. aeruginosa, 10 h cultivation at 37° C.", "value": 12.5, "unit": "µg/mL"}, {"measurement": "MIC", "setting": "Serratia marcescens; S. marcescens, 10 h cultivation at 37° C.", "value": 12.5, "unit": "µg/mL"}, {"measurement": "MIC", "setting": "E. coli BL21; E. coli BL21, 10 h cultivation at 37° C.", "value": 50, "unit": "µg/mL"}]}, {"substance": "PRT37 (IGVDCSDGFNGGCEQLCLQQMAPFPDDPTLYNILMFCGCIEDYKLGVDGRSCQ; listed as Homo sapiens)", "values": [{"measurement": "MIC (μg/mL) P. mirabilis", "setting": "Proteus mirabilis; [2]", "value": 12.5, "unit": "µg/mL"}, {"measurement": "MIC (μg/mL) P. vulgaris", "setting": "Proteus vulgaris; [3]", "value": 25, "unit": "µg/mL"}, {"measurement": "MIC", "setting": "E. coli DH5α", "value": 25, "unit": "µg/mL"}, {"measurement": "MIC (μg/mL) A. hydrophila", "setting": "Aeromonas hydrophila; [4]", "value": 12.5, "unit": "µg/mL"}, {"measurement": "MIC (μg/mL) M. catarrhalis", "setting": "Moraxella catarrhalis; [5]", "value": 12.5, "unit": "µg/mL"}, {"measurement": "MIC (μg/mL) E. cloacae", "setting": "Enterobacter cloacae; [6]", "value": 12.5, "unit": "µg/mL"}, {"measurement": "MIC (μg/mL) C. diversus", "setting": "Citrobacter diversus; [7]", "value": 25, "unit": "µg/mL"}, {"measurement": "MIC (μg/mL) K. pneumonia", "setting": "Klebsiella pneumonia; [8]", "value": 25, "unit": "µg/mL"}, {"measurement": "MIC (μg/mL) P. aeruginosa", "setting": "Pseudomonas aeruginosa; [9]", "value": 25, "unit": "µg/mL"}, {"measurement": "MIC (μg/mL) S. marcescens", "setting": "Serratia marcescens; [10]", "value": 12.5, "unit": "µg/mL"}, {"measurement": "MIC (μg/mL) E. coli BL21", "setting": "E. coli BL21; [11]", "value": 50, "unit": "µg/mL"}]}, {"substance": "PRT1283 (NTDDCVDHACANGGVCVDGVGNYTCQCPLQYEGKACE; listed as Homo sapiens)", "values": [{"measurement": "MIC against P. mirabilis", "setting": "Proteus mirabilis; [2]", "value": 25, "unit": "µg/mL"}, {"measurement": "MIC against P. vulgaris", "setting": "Proteus vulgaris; [3]", "value": 12.5, "unit": "µg/mL"}, {"measurement": "MIC", "setting": "E. coli DH5α", "value": 12.5, "unit": "µg/mL"}, {"measurement": "MIC against A. hydrophila", "setting": "Aeromonas hydrophila; [4]", "value": 12.5, "unit": "µg/mL"}, {"measurement": "MIC against M. catarrhalis", "setting": "Moraxella catarrhalis; [5]", "value": 12.5, "unit": "µg/mL"}, {"measurement": "MIC against E. cloacae", "setting": "Enterobacter cloacae; [6]", "value": 12.5, "unit": "µg/mL"}, {"measurement": "MIC against C. diversus", "setting": "Citrobacter diversus; [7]", "value": 50, "unit": "µg/mL"}, {"measurement": "MIC against K. pneumonia", "setting": "Klebsiella pneumonia; [8]", "value": 50, "unit": "µg/mL"}, {"measurement": "MIC against P. aeruginosa", "setting": "Pseudomonas aeruginosa; [9]", "value": 12.5, "unit": "µg/mL"}, {"measurement": "MIC against S. marcescens", "setting": "Serratia marcescens; [10]", "value": 25, "unit": "µg/mL"}, {"measurement": "MIC against E. coli BL21", "setting": "E. coli BL21; [11]", "value": 50, "unit": "µg/mL"}]}]}
